In patent EP0937727A1, “Soluble crystalline cefuroxime axetil” (priority 1998, dated 1999):
Where “and” joins values, the source holds several entries; their conditions need not be identical. Identical values can stand only once.

Assays:
[1] = known crystalline form of the prior art; compared with the prescribed minimum (60% in 15 Minuten, 75% in 45 Minuten); cited from earlier work
[2] = Dissolution (solubility) test of the active ingredient from standardised tablets according to USP 23, p. 316; type: physicochemical; conditions: test gemäß USP 23, nach 45 Minuten
From the text: Im Anschluß beschreibt USP 23, Seite 316 einen Test für die Bestimmung der Bioverfügbarkeit dieses, aus beiden Diastereomeren etwa im Verhältnis von 1:1 bestehenden amorphen Produktes. Hierzu wird die Löslichkeit des Wirkstoffes aus einer standardisierten Tablettenformulierung in […] bestimmt. Zuläßlich sind solche Produkte, bei denen in 15 Minuten mindestens 60% des angegebenen Gehaltes an Wirkstoff und innerhalb von 45 Minuten mindestens 75% des angegebenen Wirkstoffes aufgelöst sind.
Das Produkt gemäß EP-A1 0 757 991 läßt sich nach der dortigen Vorschrift erzeugen. Die Löslichkeit des Wirkstoffes (aus der tablettierten Form) wie im folgenden beschrieben und bestimmt nach dem Standardverfahren gem. USP 23, S. 316, erreicht jedoch nach 45 Minuten nur etwas mehr als 40 %.
Dann wurden mit dem so gewonnenen Wirkstoff einerseits, dem erfindungsgemäßen Wirkstoff andererseits Tabletten hergestellt, und zwar nach folgendem Verfahren: 305 mg kristallines Cefuroxim axetil wurden mit 50 mg Ac disol, 50 mg Avicel pH 105, 7,5 mg Aerosil 200, 2,5 mg Magnesiumstearat und 7,5 Explotab trocken vermischt. Das Gemisch wurde trocken verpreßt und granuliert. Das so erhaltene Granulat wurde mit 7,5 mg Explotab und 7,5 mg Natriumlaurylsulfat vermischt und das erhaltene Gemisch wurde dann zu Tabletten gepreßt.
Mit den so erhaltenen Tabletten wurde jeweils der Löslichkeitstest gemäß USP 23 durchgeführt. […]

In the case of `CO/N=C(\C(=O)N[C@@H]1C(=O)N2C(C(=O)OC(C)OC(C)=O)=C(COC(N)=O)CS[C@H]12)c1ccco1` (stereo partly drawn) [kristalline (R,S)-Cefuroxim axetil, (R,S)-Cefuroxim axetil], the “Löslichkeit im Test gemäß USP 23” value [1] is given as “bei weitem nicht die vorgeschriebene Mindestlöslichkeit”.
For `CO/N=C(\C(=O)N[C@@H]1C(=O)N2C(C(=O)OC(C)OC(C)=O)=C(COC(N)=O)CS[C@H]12)c1ccco1` (stereo partly drawn) [Produkt gemäß EP-A1 0 757 991, (R,S)-Cefuroxim axetil], the “Löslichkeit (Grad der Auflösung des Wirkstoffes)” value [2] was over 40%.
With `CO/N=C(\C(=O)N[C@@H]1C(=O)N2C(C(=O)OC(C)OC(C)=O)=C(COC(N)=O)CS[C@H]12)c1ccco1` (single isomer, unassigned) [Beispiel 2] the “Löslichkeit (Grad der Auflösung des Wirkstoffes)” value ([2]; listed as kristalline Form von (R,S)-Cefuroxim axetil gemäß USP 23) was > 50% and ~75%.
